The subject of one assay is CS0001. Description: Cell Assay: CS0001:IC50. It counts as cell-based.
The target of the next assay is T1, KIT(DKIN) (Homo sapiens, UniProt P10721).
T1 construct: KIT(DKIN); made in house
Description: Binding constant (Kd) measurement, phage-displayed kinase competition binding assay: KIT(DKIN). An excerpt:
(§1) The term “ND” represents non-determined values.

The next assay concerns the target KIT(JMplus) (Homo sapiens, UniProt P10721). Description: Binding constant (Kd) measurement, phage-displayed kinase competition binding assay: KIT(JMplus).
The target of a further assay is T2, KIT(JMminus,D816V) (Homo sapiens, UniProt P10721, D816V).
T2 construct: KIT(JMminus,D816V); made in house
T2 sequence (P10721 589-937 D816V limits assumed): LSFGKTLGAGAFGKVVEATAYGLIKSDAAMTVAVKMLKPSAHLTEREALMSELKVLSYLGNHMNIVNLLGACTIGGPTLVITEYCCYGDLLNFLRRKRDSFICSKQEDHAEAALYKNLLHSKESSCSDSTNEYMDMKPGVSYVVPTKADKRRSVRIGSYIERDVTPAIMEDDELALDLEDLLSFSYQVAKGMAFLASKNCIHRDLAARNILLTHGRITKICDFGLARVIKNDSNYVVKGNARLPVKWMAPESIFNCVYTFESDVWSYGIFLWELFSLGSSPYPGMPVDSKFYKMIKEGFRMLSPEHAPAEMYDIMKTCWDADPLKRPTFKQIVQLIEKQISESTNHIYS
The assay can be described thus: Binding constant (Kd) measurement, phage-displayed kinase competition binding assay: KIT(JMminus,D816V).
From the text: as §1

Another assay addresses T3, KIT(JMminus) (Homo sapiens, UniProt P10721).
T3 construct: KIT(JMminus); made in house
The assay can be described thus: Binding constant (Kd) measurement, phage-displayed kinase competition binding assay: KIT(JMminus).
From the text: as §1

In a further assay the target is T4, MKNK2(DKIN) (Homo sapiens, UniProt Q9HBH9).
T4 construct: MKNK2(DKIN); made in house
T4 sequence (Q9HBH9 84-388 limits assumed): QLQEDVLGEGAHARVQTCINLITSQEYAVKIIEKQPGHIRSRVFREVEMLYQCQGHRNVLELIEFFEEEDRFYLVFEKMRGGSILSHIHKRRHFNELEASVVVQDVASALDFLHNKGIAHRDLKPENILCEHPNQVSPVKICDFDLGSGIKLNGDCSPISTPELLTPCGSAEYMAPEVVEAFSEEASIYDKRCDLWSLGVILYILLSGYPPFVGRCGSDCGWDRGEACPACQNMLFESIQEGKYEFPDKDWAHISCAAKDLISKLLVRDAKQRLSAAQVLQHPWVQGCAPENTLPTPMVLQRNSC
Description: Binding constant (Kd) measurement, phage-displayed kinase competition binding assay: MKNK2(DKIN).
From the text: as §1

The next assay addresses T5, KIT(JMplus,V559D) (Homo sapiens, UniProt P10721, V559D).
T5 construct: KIT(JMplus); made in house
The assay can be described thus: Binding constant (Kd) measurement, phage-displayed kinase competition binding assay: KIT(JMplus,V559D).
From the text: as §1

The results in this text go back to patent US20050192314A1, “Urea derivatives as C-kit modulators” (Ambit Biosciences Corporation, priority 2003, published 2005).

Some results are limits rather than exact numbers.

T1 sequence (P10721 589-937 limits assumed): as the sequence (P10721 589-937 D816V limits assumed) above, with V228D counted along it
T3 sequence (P10721 589-937 limits assumed): as the sequence (P10721 589-937 D816V limits assumed) above, with V228D counted along it
Chain of KIT(JMplus) (P10721 546-976 limits assumed): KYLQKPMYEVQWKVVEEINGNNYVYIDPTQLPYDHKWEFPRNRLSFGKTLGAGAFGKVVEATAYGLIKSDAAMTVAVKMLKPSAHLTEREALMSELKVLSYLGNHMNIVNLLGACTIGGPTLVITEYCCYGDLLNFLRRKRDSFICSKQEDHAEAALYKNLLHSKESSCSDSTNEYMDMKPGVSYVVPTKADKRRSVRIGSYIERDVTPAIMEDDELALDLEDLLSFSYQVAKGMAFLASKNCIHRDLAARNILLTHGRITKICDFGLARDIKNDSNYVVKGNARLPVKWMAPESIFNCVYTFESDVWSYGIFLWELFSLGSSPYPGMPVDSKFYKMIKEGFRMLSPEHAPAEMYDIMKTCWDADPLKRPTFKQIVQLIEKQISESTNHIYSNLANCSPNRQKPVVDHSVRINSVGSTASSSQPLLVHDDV
T5 sequence (P10721 546-976 V559D limits assumed): as the sequence (P10721 546-976 limits assumed) above, with V14D counted along it
From the text for KIT(JMplus): The components of the assays include human kinases expressed as fusions to T7 bacteriophage particles and immobilized ligands that bind to the ATP site of the kinases. […] If the test compound binds the kinase it competes with the immobilized ligand and prevents binding to the solid support. […] The results are read out by quantitating the amount of fusion protein bound to the solid support, which is accomplished by either traditional phage plaque assays or by quantitative PCR (qPCR) using the phage genome as a template.

A word on the IC50: it is the point on the concentration scale where inhibition reaches its midpoint. A high value points to lower potency. As for `CC(C)(C)c1cnc(CSc2cnc(NC(=O)Nc3ccon3)s2)o1`, the IC50 in the assay on CS0001 is below 100 nM.
By Kd is commonly meant a measure of binding affinity in units of concentration. Read a high Kd as a looser complex. Regarding `CC(C)(C)c1cc(NC(=O)Nc2ccc(NC(=O)c3ncccc3O)cc2)no1` [Compound N134], the Kd at KIT(DKIN) was below 100 nM; at KIT(JMplus), below 100 nM; on KIT(JMminus,D816V), 100 to 1000 nM; on KIT(JMminus), below 100 nM.
In the case of `CC(C)(C)c1cc(NC(=O)Nc2ccc(N3C(=O)c4ccccc4C3=O)cc2)no1` [Compound A57], the figures for the Kd at KIT(JMminus,D816V) and at KIT(JMminus) were 1000 to 10000 nM and below 100 nM, respectively.
With `CC(C)(C)c1cc(NC(=O)Nc2ccc(NC(=O)c3ccccn3)cc2)no1` [Compound N188], the Kd at KIT(DKIN) is below 100 nM; on KIT(JMplus), below 100 nM; on KIT(JMminus,D816V) it was 100 to 1000 nM; at KIT(JMminus), below 100 nM.
Take `Cc1[nH]c(C(=O)Nc2ccc(NC(=O)Nc3cc(C(C)(C)C)on3)cc2)c(C)c1CCC(=O)O` [Compound N39]: the Kd at KIT(DKIN) is below 100 nM; at KIT(JMminus,D816V), 100 to 1000 nM.
For the compound `CC(=O)Oc1cccnc1C(=O)Nc1ccc(NC(=O)Nc2cc(C(C)(C)C)on2)cc1` [Compound N79], the Kd at KIT(JMminus,D816V) was 100 to 1000 nM; at KIT(JMminus) it was below 100 nM.
In the assay with CS0001, `CC(C)(C)c1cc(NC(=O)Nc2ccc(C(=O)/C=C/c3ccncc3)cc2)no1` yielded an IC50 of 100 to 1000 nM.
As for `CC(C)(C)c1cc(NC(=O)Nc2ccc(C(=O)Nc3nccnc3N)cc2)no1` [Compound N157], the Kd is 100 to 1000 nM at MKNK2(DKIN), 1000 to 10000 nM on KIT(JMminus,D816V) and below 100 nM on KIT(JMminus).
On to `CC(C)(C)c1cc(NC(=O)Nc2ccc(OCc3ccccc3F)cc2)no1` [Compound G12, 1-(4-(2-fluorobenzyloxy)phenyl)-3-(5-tert-butylisoxazol-3-yl)urea], for which the equilibrium dissociation constant (Kd) at KIT(DKIN) is 100 to 1000 nM; on KIT(JMminus,D816V), 1000 to 10000 nM; on KIT(JMminus) it was below 100 nM.
As to `Cc1ccc2[nH]c(C(=O)Nc3ccc(NC(=O)Nc4cc(C(C)(C)C)on4)cc3)cc2c1` [Compound N127], the Kd at KIT(JMminus,D816V) is 1000 to 10000 nM; on KIT(JMminus), below 100 nM.
Turning to `CC(C)(C)c1cc(NC(=O)Nc2ccc(Nc3ncnc4[nH]cnc34)cc2)no1` [Compound O3], the Kd on KIT(DKIN) and on KIT(JMminus,D816V) was below 100 nM each time.
With `C=N/C(=N\C)Oc1cccc(C(=O)Nc2ccc(NC(=O)Nc3cc(C(C)(C)C)on3)cc2)c1` [Compound N74], the Kd is 100 to 1000 nM at MKNK2(DKIN), 100 to 1000 nM on KIT(JMminus,D816V) and below 100 nM at KIT(JMminus).
As to `CC(C)(C)c1cc(NC(=O)Nc2ccc(NC(=O)c3cc4ccccc4[nH]3)cc2)no1` [Compound N161], the figures for the Kd on KIT(JMminus,D816V) and on KIT(JMminus) were 1000 to 10000 nM and below 100 nM, respectively.
In the case of `COc1cc2ncnc(Nc3ccc(NC(=O)Nc4cc(C(C)(C)C)on4)cc3)c2cc1OC` [Compound O5], the Kd at KIT(JMplus,V559D), at KIT(JMminus,D816V) and at KIT(JMminus) was below 100 nM throughout.
Turning to `COc1cc2nc(Cl)nc(Nc3ccc(NC(=O)Nc4cc(C(C)(C)C)on4)cc3)c2cc1OC` [Compound O1, 1-(4-(2-chloro-6,7-dimethoxyquinazolin-4-ylamino)phenyl)-3-(5-tert-butylisoxazol-3-yl)urea], the Kd is below 100 nM on KIT(JMplus,V559D), 100 to 1000 nM on KIT(DKIN), 1000 to 10000 nM at KIT(JMminus,D816V) and below 100 nM at KIT(JMminus).
`CC(C)(C)c1cc(NC(=O)Nc2ccc(OCC3CC3)cc2)no1` [Compound G37]: the Kd at MKNK2(DKIN) was 100 to 1000 nM; on KIT(DKIN), below 100 nM; at KIT(JMminus,D816V) it was 1000 to 10000 nM; at KIT(JMminus), below 100 nM.
